Experimental data taken from patent US20230109839A1, “THERAPEUTIC AGENT FOR TAUOPATHIES” (SUMITOMO PHARMA CO., LTD., priority 2020, published 2023).
Where two headings read alike, the source gives them in different places. Blank lines part the entries; values can stand above or below the compound they belong to.

Target: T1, human Nav1.1 (Homo sapiens, UniProt P35498)
T1 construct: host or cells: HEK293
Assay: Amplification of Nav1.1-derived voltage-gated sodium current (Nav1.1 current), automated patch clamp (Test 1)
Type: cell-based
Method: Test 1: Evaluation of the Amplification of Nav1.1-Derived Voltage-Gated Sodium Current (Nav1.1 Current) by Using a Cell Line Stably Expressing Human Nav1.1
(1) Preparation of Test Compound Solution
Test compounds were prepared by dissolving in DMSO at 200 times of the concentration at evaluation, and diluting the obtained solution to twice the concentration of evaluation with an extracellular fluid (135 mmol/L NaCl, 4 mmol/L KCl, 1 mmol/L MgCl2, 5 mmol/L CaCl2, 5 mmol/L Glucose, 10 mmol/L HEPES).
(2) Induction and Measurement of Nav1.1 Current
A HEK293 cell line stably expressing human Nav1.1 (cat #CYL3009, Eurofins DiscoverX Products, LLC, Human Embryonic Kidney 293) was purchased, and used in the present test. Nav1.1 current was induced by stimulating Ramp wave voltage. Detection of current which accompanied with the stimulation of voltage was carried out by a patch-clamp voltage-clamp method using HTS automated patch clamp system (SynchroPatch 768PE, Nanion Technologies GmbH, Germany). Only cells with more than 500 pA of voltage-gated sodium channel current were used for the evaluation of the activity of compounds on Nav1.1 current because there was the possibility that currents derived from endogenous voltage-gated sodium channels accounted for large proportion in cells with less than 500 pA of voltage-gated sodium channel current which was induced by stimulating Ramp wave voltage.
(3) Pharmacological Effect on Nav1.1 Current
The effect of test compounds on the amplification of Nav1.1-derived voltage-gated sodium current was evaluated by using a cell line stably expressing human Nav1.1 and HTS automated patch clamp system. In other words, test compounds were added in an extracellular fluid containing 1% DMSO, and evaluated as a change of the peak value of Nav1.1 current and the area under the curve (AUC).
(4) Method for Pharmacological Evaluation
The Nav1.1 current amplification rates of test compounds were calculated by the following formula:
Nav1.1 current amplification rate (%)=100×[the peak value of Nav1.1 current or the area under the curve after the addition of test compounds]/[the peak value of Nav1.1 current or the area under the curve before the addition of test compounds]−100

[1] = Concentration for evaluation 10 μM, HEK293 cell line stably expressing human Nav1.1
[2] = Concentration for evaluation 1 μM, HEK293 cell line stably expressing human Nav1.1
[3] = concentration for evaluation 1 μM, HEK293 stably expressing human Nav1.1
[4] = Concentration for evaluation 50 μM, HEK293 cell line stably expressing human Nav1.1
[5] = Concentration for evaluation 3 μM, HEK293 cell line stably expressing human Nav1.1
[6] = HEK293, concentration for evaluation 1 μM, HEK293 stably expressing human Nav1.1, read-out: Nav1.1 current amplification rate (%)
[7] = HEK293, Concentration for evaluation 1 μM, HEK293 cell line stably expressing human Nav1.1, read-out: Nav1.1 current amplification rate (%)

SMILES: Cc1cc(NC(=O)Cn2nc(N3CCC(C)CC3)ccc2=O)cc(C)n1 [Example 54]
Nav1.1 current amplification rate (%) [1]: 20%

SMILES: CC1CC=C(c2ccc(=O)n(CC(=O)Nc3ccc(-c4cnn(C)c4)nc3)n2)CC1 (stereo not shown) [Example 375]
Nav1.1 current amplification rate (%) [1]: 173%

SMILES: Cc1cncc(N2CCN(C(=O)Cn3nc(C4=CCC(C)(C)CC4)ccc3=O)CC2)c1 [Example 442]
Nav1.1 current amplification rate (%) [1]: 414%

SMILES: CC1CC=C(c2ccc(=O)n(CC(=O)Nc3ccnc(CN4CCOCC4)c3)n2)CC1 (stereo not shown) [Example 373]
Nav1.1 current amplification rate (%) [1]: 35%

SMILES: CC1CC=C(c2ccc(=O)n(CC(=O)Nc3ccc4nccnc4c3)n2)CC1 (stereo not shown) [Example 354]
Nav1.1 current amplification rate (%) [2]: 123%

SMILES: N#Cc1ccc(NC(=O)Cn2nc(N3CCC4(CC3)COC4)ccc2=O)cc1 [Example 27]
Nav1.1 current amplification rate (%) [1]: 5%

SMILES: Cc1cc(NC(=O)Cn2nc(C3=CCC(C)CC3)ccc2=O)cc2ncoc12 (stereo not shown) [Example 323]
Nav1.1 current amplification rate (%) [5]: 154%

SMILES: CC1CC=C(c2ccc(=O)n(CC(=O)N3CCc4cc(-c5cccnc5)ccc43)n2)CC1 (stereo not shown) [Example 298]
Nav1.1 current amplification rate (%) [2]: 51%

SMILES: COc1cccc2c1CCN2C(=O)Cn1nc(C2=CCC(C)(C)CC2)ccc1=O [Example 431]
Nav1.1 current amplification rate (%) [1]: 11%

SMILES: Cc1c(NC(=O)Cn2nc(C3=CCC(C)CC3)ccc2=O)ccc2ncnn12 (stereo not shown) [Example 353]
Nav1.1 current amplification rate (%) [4]: 32%

SMILES: COc1ccc2c(c1)CCN2C(=O)Cn1nc(C2=CCC(C)(C)CC2)ccc1=O [Example 430]
Nav1.1 current amplification rate (%) [1]: 28%

SMILES: CN1CCN(c2cccc3c2CCN3C(=O)Cn2nc(C3=CCC(C)(C)CC3)ccc2=O)CC1 [Example 433]
Nav1.1 current amplification rate (%) [1]: 192%

SMILES: COCOc1cccc2c1CCN2C(=O)Cn1nc(C2=CCC(C)(C)CC2)ccc1=O [Example 435]
Nav1.1 current amplification rate (%) [1]: 262%

SMILES: CC1CC=C(c2ccc(=O)n(CC(=O)NC3CN(c4ccccc4)C3)n2)CC1 (stereo not shown) [Example 372]
Nav1.1 current amplification rate (%) [1]: 52%

SMILES: CC1CC=C(c2ccc(=O)n(CC(=O)N3CC=C(c4ccncc4)C3)n2)CC1 (stereo not shown) [Example 387]
Nav1.1 current amplification rate (%) [2]: 19%

SMILES: CC1CC=C(c2ccc(=O)n(CC(=O)N3CCC(c4cccnc4)CC3)n2)CC1 (stereo not shown) [Example 262]
Nav1.1 current amplification rate (%) [1]: 124%

SMILES: CC1CC=C(c2ccc(=O)n(CC(=O)N3CCc4c(-c5ccncc5)cccc43)n2)CC1 (stereo not shown) [Example 250]
Nav1.1 current amplification rate (%) [5]: 564%

SMILES: CC1CCN(c2ccc(=O)n(CC(=O)Nc3cncnc3)n2)CC1 [Example 56]
Nav1.1 current amplification rate (%) [1]: 10%

SMILES: CC1CC=C(c2ccc(=O)n(CC(=O)N3CCc4c(C5CCNC5)cccc43)n2)CC1 (stereo not shown) [Example 268]
Nav1.1 current amplification rate (%) [5]: 55%

SMILES: N#Cc1ccc(NC(=O)Cn2nc(N3CCC4(CCC4)CC3)ccc2=O)cc1 [Example 26]
Nav1.1 current amplification rate (%) [1]: 364%

SMILES: CC1CC=C(c2ccc(=O)n(CC(=O)Nc3ccn4nncc4c3)n2)CC1 (stereo not shown) [Example 342]
Nav1.1 current amplification rate (%) [2]: 109%

SMILES: CC1CC=C(c2ccc(=O)n(CC(=O)N3CCc4c(CNCC(F)F)cccc43)n2)CC1 (stereo not shown) [Example 312]
Nav1.1 current amplification rate (%) [2]: 80%

SMILES: CC1CC=C(c2ccc(=O)n(CC(=O)N3CCc4nc(-c5cn[nH]c5)ccc43)n2)CC1 (stereo not shown) [Example 289]
Nav1.1 current amplification rate (%) [4]: 51%

SMILES: Cc1cc2ncnn2cc1NC(=O)Cn1nc(C2=CCC(C)CC2)ccc1=O (stereo not shown) [Example 351]
Nav1.1 current amplification rate (%) [4]: 98%

SMILES: COc1ncc(-c2cccc3c2CCN3C(=O)Cn2nc(C3=CCC(C)CC3)ccc2=O)cn1 (stereo not shown) [Example 249]
Nav1.1 current amplification rate (%) [5]: 584%

SMILES: CC1CC=C(c2ccc(=O)n(CC(=O)Nc3cccc4nccn34)n2)CC1 (stereo not shown) [Example 255]
Nav1.1 current amplification rate (%) [1]: 32%

SMILES: CC1CC=C(c2ccc(=O)n(CC(=O)N3CCc4c3ccnc4-c3cn[nH]c3)n2)CC1 (stereo not shown) [Example 285]
Nav1.1 current amplification rate (%) [2]: 113%

SMILES: CC1CC=C(c2ccc(=O)n(CC(=O)N3CCc4c(Cn5cncn5)cccc43)n2)CC1 (stereo not shown) [Example 294]
Nav1.1 current amplification rate (%) [2]: 271%

SMILES: CC1CC=C(c2ccc(=O)n(CC(=O)N3CCc4c3cccc4C(C)(C)O)n2)CC1 (stereo not shown) [Example 277]
Nav1.1 current amplification rate (%) [2]: 210%

SMILES: CC1CC=C(c2ccc(=O)n(CC(=O)Nc3ccc4nncn4c3)n2)CC1 (stereo not shown) [Example 341]
Nav1.1 current amplification rate (%) [4]: 202%

SMILES: N#Cc1ccc(NC(=O)Cn2nc(N3CCC(F)(F)CC3)ccc2=O)cc1 [Example 5]
Nav1.1 current amplification rate (%) [1]: 6%

SMILES: CC1CC=C(c2ccc(=O)n(CC(=O)N3CCN(c4cncc(C(F)(F)F)c4)CC3)n2)CC1 (stereo not shown) [Example 401]
Nav1.1 current amplification rate (%) [1]: 286%

The remaining lines, values ahead:

Nav1.1 current amplification rate (%) [2]: 195%
SMILES: CN(c1cnc2cnn(CC(=O)Nc3ccc4cnccc4c3)c2n1)C1CC1 [Example 706]

Nav1.1 current amplification rate (%) [2]: 164%
SMILES: CC1CC=C(c2ncc3cnn(CC(=O)Nc4ccn5ncnc5c4)c3n2)CC1 (racemic) [Example 764]

Nav1.1 current amplification rate (%) [3]: 97%
SMILES: CN(c1ccc2cnn(CC(=O)Nc3ccn4ncnc4c3)c2n1)C1CCCC1 [Example 862]

Nav1.1 current amplification rate (%) [2]: 62%
SMILES: CN(c1cnc2cnn(CC(=O)Nc3ccc4cnnn4c3)c2n1)C1CC1 [Example 707]

Nav1.1 current amplification rate (%) [4]: 47%
SMILES: C#CCN(C)c1cnc2cnn(CC(=O)Nc3ccc4ncnn4c3)c2n1 [Example 662]

Nav1.1 current amplification rate (%) [5]: 23%
SMILES: CN(c1cnc2cnn(CC(=O)Nc3ccc4ccccc4n3)c2n1)C1CC1 [Example 717]

Nav1.1 current amplification rate (%) [3]: 111%
SMILES: CN(c1ncc2cnn(CC(=O)Nc3ccn4ncnc4c3)c2n1)C1CC2(CC2)C1 [Example 802]

Nav1.1 current amplification rate (%) [2]: 252%
SMILES: CC1CCN(c2cnc3cnn(CC(=O)Nc4ccc5cncnc5c4)c3n2)CC1 [Example 642]

Nav1.1 current amplification rate (%) [3]: 160%
SMILES: CC1CC=C(c2ccc3cnn(CC(=O)Nc4ccn5ccnc5c4)c3n2)CC1 (stereo not shown) [Example 864]

Nav1.1 current amplification rate (%) [2]: 17%
SMILES: CN(c1cnc2cnn(CC(=O)Nc3ccc4cnccc4n3)c2n1)C1CC1 [Example 721]

Nav1.1 current amplification rate (%) [2]: 35%
SMILES: CN(c1cnc2cnn(CC(=O)Nc3ccc(Cl)nc3)c2n1)C1CC1 [Example 722]

Nav1.1 current amplification rate (%) [2]: 13%
SMILES: CN(c1cnc2cnn(CC(=O)N3CCc4c(-c5ccnn5C)cccc43)c2n1)C1CCC1 [Example 693]

activation at 1 µM [6]: 103%
SMILES: Cc1cc(NC(=O)Cn2ncc3cnc(N(C)C4CCCC4)nc32)cc2ncnn12 [Example 837]

Nav1.1 current amplification rate (%) [1]: 250%
SMILES: COc1cc(C2=CCC(C)CC2)nn(CC(=O)Nc2ccc3ocnc3c2)c1=O (racemic) [Example 449]

activation at 1 µM [6]: 151%
SMILES: CN(CC1CCC1)c1ccc2cnn(CC(=O)Nc3cnc4cccnc4c3)c2n1 [Example 889]

activation at 50 µM (HEK293, concentration for evaluation 50 μM, HEK293 stably expressing human Nav1.1, read-out: Nav1.1 current amplification rate (%)): 118%
SMILES: CC1CCN(c2ncc3cnn(CC(=O)N4CCN(c5cccnc5)CC4)c3n2)CC1 [Example 835]

Nav1.1 current amplification rate (%) [3]: 10%
SMILES: O=C(Cn1ncc2ccc(-c3ccc(F)cc3F)nc21)Nc1ccc2ncnn2c1 [Example 871]

Nav1.1 current amplification rate (%) [2]: 161%
SMILES: O=C(Cn1ncc2cnc(N3CCC4(CC4)C(F)(F)C3)nc21)Nc1ccn2ncnc2c1 [Example 792]

Nav1.1 current amplification rate (%) [2]: 50%
SMILES: O=C(Cn1ncc2cnc(-c3ccc(Cl)s3)nc21)Nc1ccn2ncnc2c1 [Example 774]

Nav1.1 current amplification rate (%) [1]: 633%
SMILES: CC1(C)CC=C(c2ccc(=O)n(CC(=O)N3CCc4c(N5CCOCC5)cccc43)n2)C1 [Example 475]

Nav1.1 current amplification rate (%) [4]: 63%
SMILES: CC(C)N(C)c1cnc2cnn(CC(=O)Nc3ccc4ncnn4c3)c2n1 [Example 665]

activation at 1 µM [6]: 283%
SMILES: CC1CC=C(c2ncc3cnn(CC(=O)NC4=CC5N=COC5C=C4)c3n2)CC1 (stereo not shown) [Example 833]

Nav1.1 current amplification rate (%) [3]: 226%
SMILES: O=C(Cn1ncc2cnc(N3CCC4(CCC4)CC3)nc21)Nc1ccc2cncnc2c1 [Example 808]

Nav1.1 current amplification rate (%) [2]: 26%
SMILES: Cc1nccn1-c1ccc(NC(=O)Cn2ncc3ncc(N(C)C4CCCC4)nc32)cc1 [Example 681]

Nav1.1 current amplification rate (%) [4]: 17%
SMILES: Cc1ccc(F)c(Nc2ncc3cnn(CC(=O)Nc4ccn5ncnc5c4)c3n2)c1 [Example 776]

activation at 1 µM [7]: 43%
SMILES: CN(c1cnc2cnn(CC(=O)Nc3ccc(C#N)nn3)c2n1)C1CC(C)(C)C1 [Example 761]

Nav1.1 current amplification rate (%) [4]: 13%
SMILES: N#Cc1ccc(-c2ncc3cnn(CC(=O)Nc4ccn5ncnc5c4)c3n2)s1 [Example 778]

Nav1.1 current amplification rate (%) [1]: 420%
SMILES: COc1cc(-c2cc(Cl)cs2)nn(CC(=O)N2CCc3c(N4CCOCC4)cccc32)c1=O [Example 479]

activation at 1 µM [7]: 10%
SMILES: N#Cc1ccc(NC(=O)Cn2ncc3ncc(N4CCC5(CC5)C(F)(F)C4)nc32)nc1 [Example 757]
